Assay [1] can be described thus: Test 9: sensory evaluation of saltiness intensity, meatballs. Format: in vivo. As to conditions: effect if average score 1 point or more. The text has this: (§1) Meatballs were produced as evaluation samples by the following steps (1) to (6).
(§2) (1) Commercially available ground pork, sodium chloride (manufactured by Naikai Salt Industries Co., Ltd.), and potassium chloride (manufactured by Uji Pharmaceutical Co., Ltd.) were mixed in the ratios shown in Table 25 below, and the mixture was stirred in a stand mixer (“Kitchen Aid”, model: KSM5WH, manufactured by FMI Corporation) until the entire mixture was uniformly mixed. The speed scale of the stand mixer was set to “1”. (2) To the mixture obtained in the above-mentioned (1) were added finely chopped onion, water, salad oil (manufactured by J-OIL MILLS, INC.), potato starch (manufactured by Minami-Tokachi Rationalized Potato Starch Factory), and β-caryophyllene solution or β-caryophyllene oxide solution in the ratios shown in Table 25 below, and the mixture was stirred in the above-mentioned stand mixer (speed scale setting: 1) until the entire mixture was uniformly mixed. The β-caryophyllene solution was prepared by dissolving β-caryophyllene (manufactured by Sigma-Aldrich) in propylene glycol to a concentration of 1000 ppm by weight, and the β-caryophyllene oxide solution was prepared by dissolving β-caryophyllene oxide (manufactured by Penta Manufacturing Company) in propylene glycol to a concentration of 1000 ppm by weight. […]

Assay [2] can be described thus: Test 9: sensory evaluation of off-taste level, meatballs. It counts as in vivo. The settings on record: effect if average score 1 point or more.
Excerpt: as §1, §2

The values below come from patent US20250248431A1, “AGENT FOR ENHANCING SALTINESS OR SUPRESSING OFF-FLAVOR” (AJINOMOTO CO., INC., priority 2022, published 2025).

As to `C=C1CC[C@H]2O[C@]2(C)CC[C@@H]2[C@@H]1CC2(C)C` [β-caryophyllene oxide], the “saltiness enhancing effect” value in assay [1] is “can enhance the saltiness”. Also, the “off-taste suppression effect” value in assay [2] is “suppress the off-taste of off-taste substances”.
